*1 amine or outer side, *2 acyl side, *3 side chain or, on linkers, in order; H or OH if unused. Where a SMILES comes first, the peptide text is derived from it. [ ]: non-standard residue; d: D form. Trp(4-Cl)(βS-Me) = C[C@@H](c1c[nH]c2cccc(Cl)c12)[C@H](N)C(=O)O; Trp(βS-Me,4-F) = C[C@@H](c1c[nH]c2cccc(F)c12)[C@H](N)C(=O)O; Bip(4'-COOH) = N[C@@H](Cc1ccc(-c2ccc(C(=O)O)cc2)cc1)C(=O)O; Phe(3-CH2NH2) = O=C([C@H](Cc1cccc(CN[*:3])c1)N[*:1])[*:2]; X2 = O=C(O)c1ccc(-c2ccc(C[C@H](N[*:1])C(=O)[*:2])cn2)cc1; 1Nal(3S-Me) = C[C@@H](c1cccc2ccccc12)[C@H](N)C(=O)O; Phe(4-COOH) = N[C@@H](Cc1ccc(C(=O)O)cc1)C(=O)O; h3Pal(5-CN) = N#Cc1cncc(CC[C@H](N)C(=O)O)c1; Pro(4R-NH2) = N[C@H]1CN[C@H](C(=O)O)C1; 1Nal = N[C@@H](Cc1cccc2ccccc12)C(=O)O; AEF = NCCOc1ccc(C[C@H](N)C(=O)O)cc1; hTyr = N[C@@H](CCc1ccc(O)cc1)C(=O)O; hPhe = N[C@@H](CCc1ccccc1)C(=O)O; 4Pal = N[C@@H](Cc1ccncc1)C(=O)O; dDab = NCC[C@@H](N)C(=O)O; Orn = NCCC[C@H](N)C(=O)O; dNMeA = CN[C@H](C)C(=O)O; Dap = NC[C@H](N)C(=O)O; Aib = CC(C)(N)C(=O)O
molecular target: T1, Recombinant human IL-1β (Homo sapiens, UniProt P01584); experiment: IL-6 assay in MRC5 cells: inhibition of IL-1β induced IL-6 secretion (AlphaLISA); type: cell-based; conditions: inhibition of IL-1β induced IL-6 secretion in MRC5 cells; IL-1β pre-incubated 1 hour with compound; read-out: MRC5 IC50
T1 construct: purchased BioLegend 579404
Method in brief: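 IL-1β at 2×EC80 in seeding medium (EMEM, 0.025% BSA) preincubated 1 h at ambient temperature with compound, then 3000 MRC5 cells/well added and incubated overnight at 37 °C, 5% CO2. IL-6 in conditioned medium quantified by AlphaLISA; IC50 from 4-parameter logistic fit.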

T1 sequence (P01584 117-269): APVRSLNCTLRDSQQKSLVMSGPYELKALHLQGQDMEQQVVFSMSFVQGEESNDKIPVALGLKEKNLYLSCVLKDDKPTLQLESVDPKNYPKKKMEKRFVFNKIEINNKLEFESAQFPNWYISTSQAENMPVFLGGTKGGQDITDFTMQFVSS

| SMILES | IC50 |
| --- | --- |
| CC(=O)NCCOc1ccc(C[C@@H]2NC(=O)[C@H](CCc3cncc(C#N)c3)NC(=O)[C@@H](CCN)NC(=O)CNC(=O)[C@H](Cc3ccncc3)NC(=O)[C@H](Cc3ccc(-c4ccc(C(=O)O)cc4)cc3)NC(=O)CNC(=O)[C@@H](C)N(C)C(=O)[C@H](CC(=O)O)NC(=O)[C@H]([C@@H](C)c3cccc4ccccc34)NC(=O)[C@@H]3C[C@@H](N)CN3C(=O)CNC(=O)[C@H](Cc3ccc(C(=O)O)cc3)NC(=O)[C@H](Cc3c[nH]c4ccccc34)NC2=O)cc1 [Example 102] (cyclo([AEF](Ac)W[Phe(4-COOH)]G[Pro(4R-NH2)][1Nal(3S-Me)]D[dNMeA]G[Bip(4'-COOH)][4Pal]G[dDab][h3Pal(5-CN)])) | 0.0421 nM |
| CC(C)C[C@@H]1NC(=O)[C@H](CCCCN)NC(=O)[C@H](Cc2ccc(-c3ccc(C(=O)O)cc3)cc2)NC(=O)CNC(=O)[C@@H](C)N(C)C(=O)[C@H](CC(=O)O)NC(=O)[C@H]([C@@H](C)c2c[nH]c3cccc(Cl)c23)NC(=O)[C@@H]2C[C@@H](N)CN2C(=O)CNC(=O)[C@H](Cc2ccc(C(=O)O)cc2)NC(=O)[C@H](Cc2c[nH]c3ccccc23)NC(=O)[C@H](Cc2ccc(-c3ccc(C(=O)O)cc3)cc2)NC(=O)[C@H](CCc2ccc(O)cc2)NC(=O)[C@@H](CO)NC1=O [Example 44] (cyclo([Bip(4'-COOH)]W[Phe(4-COOH)]G[Pro(4R-NH2)][Trp(4-Cl)(βS-Me)]D[dNMeA]G[Bip(4'-COOH)]KL[dS][hTyr])) | 0.132 nM |
| C[C@@H]1C(=O)NCC(=O)N[C@@H](Cc2ccc(-c3ccc(C(=O)O)cc3)cc2)C(=O)N[C@@H](Cc2c[nH]c3ccccc23)C(=O)N[C@@H](CN)C(=O)N[C@H](C)C(=O)N[C@@H](CCc2cncc(C#N)c2)C(=O)N[C@@H](Cc2ccc(-c3ccc(C(=O)O)cc3)cc2)C(=O)N[C@@H](Cc2c[nH]c3ccccc23)C(=O)N[C@@H](Cc2ccc(C(=O)O)cc2)C(=O)NCC(=O)N2C[C@H](N)C[C@H]2C(=O)N[C@@H]([C@@H](C)c2cccc3ccccc23)C(=O)N[C@@H](CC(=O)O)C(=O)N1C [Example 30] (cyclo([Bip(4'-COOH)]W[Phe(4-COOH)]G[Pro(4R-NH2)][1Nal(3S-Me)]D[dNMeA]G[Bip(4'-COOH)]W[Dap][dA][h3Pal(5-CN)])) | 0.0185 nM |
| C[C@@H]1C(=O)NCC(=O)N[C@@H](Cc2ccc(-c3ccc(C(=O)O)cc3)cc2)C(=O)N[C@@H](Cc2c[nH]c3ccccc23)C(=O)N[C@@H](CN)C(=O)N[C@H](C)C(=O)N[C@@H](CCc2ccc(O)cc2)C(=O)N[C@@H](Cc2ccc(-c3ccc(C(=O)O)cc3)nc2)C(=O)N[C@@H](Cc2c[nH]c3ccccc23)C(=O)N[C@@H](Cc2ccc(C(=O)O)cc2)C(=O)NCC(=O)N2C[C@H](N)C[C@H]2C(=O)N[C@@H]([C@@H](C)c2cccc3ccccc23)C(=O)N[C@@H](CC(=O)O)C(=O)N1C [Example 11] (cyclo([X2]W[Phe(4-COOH)]G[Pro(4R-NH2)][1Nal(3S-Me)]D[dNMeA]G[Bip(4'-COOH)]W[Dap][dA][hTyr])) | 0.0908 nM |
| CC(C)C[C@@H]1NC(=O)[C@H](Cc2cccc(CN)c2)NC(=O)[C@H](Cc2ccc(-c3ccc(C(=O)O)cc3)cc2)NC(=O)CNC(=O)[C@@H](C)N(C)C(=O)[C@H](CC(=O)O)NC(=O)[C@H]([C@@H](C)c2c[nH]c3cccc(F)c23)NC(=O)[C@@H]2C[C@@H](N)CN2C(=O)CNC(=O)[C@H](Cc2ccc(C(=O)O)cc2)NC(=O)[C@H](Cc2c[nH]c3ccccc23)NC(=O)[C@H](Cc2ccc(-c3ccc(C(=O)O)cc3)cc2)NC(=O)[C@H](CCc2ccc(O)cc2)NC(=O)[C@@H](C)NC1=O [Example 73] (cyclo([Bip(4'-COOH)]W[Phe(4-COOH)]G[Pro(4R-NH2)][Trp(βS-Me,4-F)]D[dNMeA]G[Bip(4'-COOH)][Phe(3-CH2NH2)]L[dA][hTyr])) | 0.0509 nM |

same assay, conditions: inhibition of IL-1β induced IL-6 secretion in MRC5 cells; read-out: MRC5 IC50

| SMILES | IC50 |
| --- | --- |
| COC[C@@H]1NC(=O)[C@H](Cc2c[nH]c3ccccc23)NC(=O)[C@H](Cc2ccc(-c3ccc(C(=O)O)cc3)cc2)NC(=O)CNC(=O)[C@@H](C)N(C)C(=O)[C@H](CC(=O)O)NC(=O)[C@H]([C@@H](C)c2c[nH]c3cccc(Cl)c23)NC(=O)[C@@H]2C[C@@H](N)CN2C(=O)CNC(=O)[C@H](Cc2ccc(C(=O)O)cc2)NC(=O)[C@H](Cc2c[nH]c3ccccc23)NC(=O)[C@H](Cc2ccc(OCCNC(C)=O)cc2)NC(=O)[C@H](CCc2ccccc2)NC(=O)[C@@H](C)NC1=O [Example 152] (cyclo([AEF](Ac)W[Phe(4-COOH)]G[Pro(4R-NH2)][Trp(4-Cl)(βS-Me)]D[dNMeA]G[Bip(4'-COOH)]WS(Me)[dA][hPhe])) | 0.06 nM |
| CC(=O)NCCOc1ccc(C[C@@H]2NC(=O)CNC(=O)C(C)(C)NC(=O)[C@H](CCCN)NC(=O)[C@H](Cc3cccc4ccccc34)NC(=O)[C@H](Cc3ccc(-c4ccc(C(=O)O)cc4)cc3)NC(=O)CNC(=O)[C@@H](C)N(C)C(=O)[C@H](CC(=O)O)NC(=O)[C@H]([C@@H](C)c3c[nH]c4cccc(Cl)c34)NC(=O)[C@@H]3C[C@@H](N)CN3C(=O)CNC(=O)[C@H](Cc3ccc(C(=O)O)cc3)NC(=O)[C@H](Cc3c[nH]c4ccccc34)NC2=O)cc1 [Example 132] (cyclo([AEF](Ac)W[Phe(4-COOH)]G[Pro(4R-NH2)][Trp(4-Cl)(βS-Me)]D[dNMeA]G[Bip(4'-COOH)][1Nal][Orn][Aib]G)) | 0.37 nM |

Source: patent US20230406885A1, “CYCLIC PEPTIDES FOR TRAPPING INTERLEUKIN-1 BETA” (MERCK SHARP & DOHME LLC, priority 2022, published 2023)
